Values of other authors in US11406636B2, “Combined pharmaceutical composition” (Alepharma, Sociedad Anónima Promotora de inversión de …, priority 2017, dated 2022).
Where two headings read alike, the source gives them in different places.

Experiments:
CML formation = conditions: bovine serum with ribose, presence or absence of natural compounds
[1] = test system: streptozotocin-induced diabetic rat; conditions: for levels of methylglyoxal: increased by 68% in diabetic rats versus normal controls; for levels of glyoxal: increased by 115% in diabetic rats versus normal controls
diabetic rats = conditions: 200 mg/kg weight orally for 8 weeks
[2] = test system: bovine serum albumin, ribonuclease A and human hemoglobin; conditions: in vitro
[3] = not given; remark: listed apart in the source
[4] = physiological conditions, dose-dependent, forming adducts
[5] = within the first hour under physiological conditions

## C[C@@H]1O[C@@H](O[C@@H]2[C@@H](O)[C@H](OCCc3ccc(O)c(O)c3)O[C@H](CO)[C@H]2OC(=O)/C=C/c2ccc(O)c(O)c2)[C@H](O)[C@H](O)[C@H]1O [acteoside]
CML formation
  formation of CML: increase the formation of CML

## C/C(=C(\CCOP(=O)(O)O)SC(=O)c1ccccc1)N(C=O)Cc1cnc(C)nc1N [benfotiamine]
[1]
  levels of methylglyoxal: normalized
  levels of glyoxal: normalized

## COc1cc(/C=C/C(=O)CC(=O)/C=C/c2ccc(O)c(OC)c2)ccc1O [curcumin, Curcumin]
Diabetic rats
  accelerated accumulation of AGEs in the collagen, detected by ELISA: prevented
  accumulation of lipid peroxidation products in serums: significantly reduced
  collagen cross-linking in the tendon of the tail and skin: extensively prevented
  oxidative stress: significantly reduced

## O=C(O)c1cc(O)c(O)c(O)c1 [gallic acid]
CML formation
  formation of CML: increase the formation of CML

## CC1(C)[C@@H](O)CC[C@]2(C)[C@H]3C(=O)C=C4[C@@H]5C[C@@](C)(C(=O)O)CC[C@]5(C)CC[C@@]4(C)[C@]3(C)CC[C@@H]12 [glycylrhetinic acid]
CML formation
  formation of CML: significantly inhibited the formation of CML

## CC1(C)[C@@H](O[C@H]2O[C@H](C(=O)O)[C@@H](O)[C@H](O)[C@H]2O[C@@H]2O[C@H](C(=O)O)[C@@H](O)[C@H](O)[C@H]2O)CC[C@]2(C)[C@H]3C(=O)C=C4[C@@H]5C[C@@](C)(C(=O)O)CC[C@]5(C)CC[C@@]4(C)[C@]3(C)CC[C@@H]12 [glycyrrhizin]
CML formation
  formation of CML: significantly inhibited the formation of CML

## Cc1ncc(CO)c(CN)c1O [pyridoxamine]
[2]
  inhibition of the formation of AGEs, compared with aminoguanidine: more effective than aminoguanidine

## Cc1ncc(CO)c(CO)c1O [pyridoxine, Pyridoxine]
[2]
  inhibition of the formation of AGEs, compared with aminoguanidine: more effective than aminoguanidine

## O=c1c(O)c(-c2ccc(O)c(O)c2)oc2cc(O)cc(O)c12 [quercetin, Quercetin]
[4]
  methylglyoxal trapped: ≤ 80%
[5]
  methylglyoxal trapped: ≤ 50%
CML formation
  formation of CML: significantly inhibited the formation of CML
[3]; [4]
  glyoxal trapped: up to 50%
[3]; [5]
  glyoxal trapped: up to 30%

## Cc1ncc(C[n+]2csc(CCO)c2C)c(N)n1 [thiamine, Thiamine]
[2]
  inhibition of the formation of AGEs, compared with aminoguanidine: more effective than aminoguanidine
[1]
  levels of methylglyoxal: normalized
  levels of glyoxal: normalized
[1]; increased by 74% in diabetic rats
  levels of N-carboxymethyl-lysine (CML): normalized
[1]; increased by 118% in diabetic rats
  levels of N-carboxyethyl-lysine (CEL): normalized
